# Data as given in patent US4510143A, “Antiallergic pyrimido[1,2-a]quinoxalin-2-carboxylic acid derivatives” (Roussel Uclaf, priority 1982, dated 1985).
# Tested on: passive cutaneous reaction mediated by Ig G antibodies
# Assay: Passive cutaneous anaphylaxis in the rat (PCR), inhibition of Ig G PCR after oral administration
# Assay type: in vivo
# Conditions: male Wistar rats, 4 hour sensitization, 1 mg ovalbumen challenge
# Procedure: Passive cutaneous anaphylaxis in the rat (PCR)
# Passive cutaneous anaphylaxis in the rat was carried out in male Wistar rats weighing 180-200 g which were sensitized by intradermal injection into four sites on shaved backs to produce a passive cutaneous reaction mediated by Ig G antibodies (a 4 hour sensitization following injection of antiserum heated at 56° C. for one hour). Antigen challenge was carried out in the same way with 1 mg of ovalbumen together with 0.5 ml of 1% Evans blue dye solution being injected intravenously and 30 minutes later, the animals were killed and the severity and area of each blue spot was scored when viewed from the reverse side of the skin.
SMILES,% inhibition of Ig G PCR (1 mg/kg),% inhibition of Ig G PCR (10 mg/kg),% inhibition of Ig G PCR (0.1 mg/kg)
"O=C(O)c1cnc2cnc3ccccc3n2c1=O [Example 1, 1-oxo-1H-pyrimido[1,2-a]quinoxaline-2-carboxylic acid]",9.9%,50.3%,–
"O=C(Nc1nnn[nH]1)c1cnc2cnc3ccccc3n2c1=O [Example 2, N-(5-Tetrazolyl)-1-oxo-1H-pyrimido[1,2-a]quinoxaline-2-carboxamide]",29.9%,48.6%,–
"O=C(O)c1cnc2c(=O)[nH]c3ccccc3n2c1=O [Example 8, 1,5-dioxo-1,6-dihydropyrimido[1,2-a]quinoxalin-2-carboxylic acid]",52.4%,94.1%,40.5%
O=C(Nc1nn[nH]n1)c1cnc2c(=O)[nH]c3ccccc3n2c1=O [Example 9],23%,35%,19%
Cn1c(=O)c2ncc(C(=O)O)c(=O)n2c2ccccc21 [Example 10],15.6%,20.5%,–
